{"source": "patent US20230173090A1", "about": "“COMPOSITIONS AND METHODS FOR MODULATING DOPAMINE RECEPTOR ACTIVITY” (The Regents of the University of California, priority 2020, published 2023)", "format_in_all_cases": "cell-based", "key": {"D1R [1]": {"biological_target": "T1, D1R (Homo sapiens, UniProt P21728)", "T1 construct": "expressed in transfected cells; host or cells: HEK293T (A1, A2); HEK293 (A26)", "test": "D1R-mediated GIRK channel activation assay in HEK293T cells (whole-cell electrophysiology)", "experimental": "All constructs were cloned into mammalian expression vectors. For the receptor mediated-GIRK activation assay, HEK293T cells were seeded onto 18 mm coverslips and transiently transfected overnight with Lipofectamine 2000 and the following constructs: a receptor, a variant of the membrane-anchor (M; 0.7 µg), GIRK1(F137S) (0.7 µg), and tdTomato (0.2 µg). […] D1R, D5R, or opto-D1R were cotransfected with Gαis13 (0.35 µg), D3R with GαoA (0.7 µg), and M1R or mGluR1 with Gαiq5. Transfected cells were used for electrophysiology, imaging, or flow cytometry experiments.\nHEK293T cells were sparsely seeded and maintained in DMEM (Invitrogen) with 10% fetal bovine serum on poly-L-lysine-coated coverslips at 37° C. and 5% CO2. HEK293T cells were voltage clamped in whole-cell configuration 16-48 hours after transfection. […] GluK2 electrophysiology was performed in the presence of 0.3 mg/mL concanavalin A to prevent desensitization. […] Cells were voltage clamped to -60 or -80 mV using an Axopatch 200A (Molecular Devices) amplifier.\nFor all experiments, compounds were applied using a gravity-driven perfusion system and illumination was applied to the entire field of view using a Polychrome V monochromator (TILL Photonics) through a 20x objective (maximum 0.05 mW/mm^2 at 370 nm and 0.5 mW/mm^2 at 460 nm or 473 nm) or a DG4 (Sutter) through a 20x objective (maximum 0.06 mW/mm^2 at 370 nm and 0.6 mW/mm^2 at 445 nm). pClamp software was used for both data acquisition and control of illumination.\nThe selection criteria for electrophysiological experiments are that a cell (i) expresses the fluorescent protein transfection marker, and (ii) responds to agonist, indicating the presence of either receptor and GIRK or an LGIC. Cells were not excluded unless the recording was of poor quality (e.g., unstable baseline).\nData were analyzed using GraphPad Prism (GraphPad), Clampfit (Axon instruments), Origin (OriginLab), MATLAB, or ImageJ software. For dose-response curves, data were normalized to vehicle (0%) and DA (100%) and nonlinear regression analysis was performed using the sigmoidal dose-response function in GraphPad Prism. Statistical analyses were performed using GraphPad Prism. All values reported are mean ± S.E.M.\nFIGS. 9A-9H. Functional properties of untethered P-D1ago. (A) Schematic representation of a D1R-mediated G protein-coupled inwardly rectifying potassium (GIRK) channel assay in HEK293T cells. Agonist-induced receptor activation results in the recruitment of a heterotrimeric G protein containing the chimeric Gα subunit (Gαis) followed by the release of Gβγ, which activates GIRK channels and enhances inward-current. […] (E) Schematic representation of a highly sensitive D1R-mediated cAMP accumulation assay in HEK293T cells. Agonist-induced D1R activation results in Gs/olfrecruitment followed by the binding of its Gα subunit to adenylate cyclase (AC), which enhances the conversion of ATP to cAMP. cAMP binds the bioluminescence resonance energy transfer 1 (BRET′)-based cAMP sensor CAMYEL^87, resulting in a conformational change in its Epac domain that increases the distance and decreases BRET^1 between the donor Renilla luciferase (Rluc) and the acceptor YFP. […] Optimization and characterization of the D1R MP"}, "D1R [2]": {"biological_target": "T1, D1R", "test": "D1R-mediated cAMP accumulation assay (BRET sensor CAMYEL) in HEK293T cells", "details": "FIGS. 9A-9H", "source_text": "FIGS. 9A-9H. Functional properties of untethered P-D1ago. (A) Schematic representation of a D1R-mediated G protein-coupled inwardly rectifying potassium (GIRK) channel assay in HEK293T cells. Agonist-induced receptor activation results in the recruitment of a heterotrimeric G protein containing the chimeric Gα subunit (Gαis) followed by the release of Gβγ, which activates GIRK channels and enhances inward-current. […]. (C) Representative traces of the effect of untethered P-D1ago on D1R in the absence of the membrane-anchor (M) according to the GIRK assay. […] (D) Summary of the functional effect of untethered P-D1ago on D1R in the GIRK assay. n = 4-5 cells per condition. (E) Schematic representation of a highly sensitive D1R-mediated cAMP accumulation assay in HEK293T cells. Agonist-induced D1R activation results in Gs/olfrecruitment followed by the binding of its Gα subunit to adenylate cyclase (AC), which enhances the conversion of ATP to cAMP. cAMP binds the bioluminescence resonance energy transfer 1 (BRET′)-based cAMP sensor CAMYEL^87, resulting in a conformational change in its Epac domain that increases the distance and decreases BRET^1 between the donor Renilla luciferase (Rluc) and the acceptor YFP. […]"}, "intracellular SNAP-tag": {"biological_target": "T2, intracellular SNAP-tag (Homo sapiens, UniProt P16455, A127T/A154D/C150Q/C62A/E30R/G131K/G132T/G153L/K125A/K32I/L33F/M134L/N157G/Q115S/Q116H/R128A/R135S/S151G/S152D/S159E)", "T2 construct": "expressed in transfected cells", "T2 sequence (P16455 1-182 E30R/K32I/L33F/C62A/Q115S/Q116H/K125A/A127T/R128A/G131K/G132T/M134L/R135S/C150Q/S151G/S152D/G153L/A154D/N157G/S159E limits assumed)": "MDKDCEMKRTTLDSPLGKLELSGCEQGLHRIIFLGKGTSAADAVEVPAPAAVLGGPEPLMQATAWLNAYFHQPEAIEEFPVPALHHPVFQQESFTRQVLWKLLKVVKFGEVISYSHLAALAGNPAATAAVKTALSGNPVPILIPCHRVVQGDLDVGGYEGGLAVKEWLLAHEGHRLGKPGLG", "test": "Block of BG-TMRstar binding to intracellular SNAP-tag expressed in the cytosol", "details": "1 µM for 1 hour, then 1.5 µM BG-TMRstar for 20 minutes"}}}
{"smiles": "CCCN(CCc1ccc(N=Nc2ccc(NC(=O)CNC(=O)CCOCCOCCOCCOCCOCCOCCOCCOCCOCCOCCOCCOCCn3cc(CCC(=O)NCc4ccc(COc5nc(N)nc6nc[nH]c56)cc4)nn3)cc2)cc1)C1CCc2c(O)cccc2C1", "note": "(stereo not shown) [P-D1ago, Benzylguanine-azobenzene-PPHT]", "values": [{"measurement": "effect of untethered P-D1ago on D1R in the GIRK assay", "setting": "D1R [1]; absence of the membrane-anchor (M), 1 µM or 10 µM, trans (blue light) or cis (UV light)", "result": "Neither 1 µM or 10 µM P-D1ago, concentrations that fully label the M (FIG. 8D), have any effect on the receptor"}, {"measurement": "D1R activation by P-D1ago tethered to MEAAAK", "setting": "D1R [1]; tethered to MEAAAK (SEQ ID NO:16), blue light", "result": "only partially activates D1R"}, {"measurement": "D1R activation in the presence of sub-saturating DA", "setting": "D1R [1]; tethered to MEAAAK, 100 nM and 1 µM DA", "result": "further activated D1R"}, {"measurement": "effect on the ability of DA to activate D1R", "setting": "D1R [1]; tethered to MEAAAK, saturating DA (10 µM)", "result": "did not diminish the ability of DA to fully activate D1R"}, {"measurement": "photoactivation of D1R by P-D1ago tethered to the M", "setting": "D1R [1]; tethered to the M, relative to a saturating concentration of DA", "result": "partially photoactivated with blue light (460 nm) and is deactivated with UV light (370 nm)"}, {"measurement": "agonist profile at D1R in untethered form", "setting": "D1R [2]", "result": "low potency full agonist"}, {"measurement": "block of BG-TMRstar binding to intracellular SNAP-tag (membrane permeation)", "setting": "intracellular SNAP-tag", "result": "does not effectively prevent the binding"}]}
